Source: patent publication US20090233796A1, “HERBICIDAL COMPOSITION” (SYNGENTA CROP PROTECTION, INC., priority 2004, published 2009)

How the values were obtained:
Assay type in all cases: in vivo
[1] = tested on: CYNODON DACTYLON; assay: Compound (A) with glyphosate, weed plots; conditions: 82 DAA, No. 2.1
Description: (§1) The compositions were formulated as an emulsifyable concentrate (EC).
(§2) The results in the table under each application are the percentage of the plants that were killed.

[2] = tested on: CYPERUS ROTUNDUS; assay: Compound (A) with glyphosate, weed plots; conditions: 2 DAA, No. 2.5
Description: as §1, §2

[3] = tested on: CYPERUS SP.; assay: Compound (A) with glyphosate, weed plots
Description: as §1, §2

[4] = tested on: DIGITARIA SANGUINALIS; assay: Compound (A) with glyphosate, weed plots; conditions: 52 DAA, No. 2.2
Description: as §1, §2

[5] = tested on: HORDEUM PUSILLUM; assay: Compound (A) with glyphosate, weed plots; conditions: 13 DAA, No. 2.6
Description: as §1, §2

[6] = tested on: ABUTILON THEOPHRASTI; assay: Compound (A) with nicosulfuron, weed plots; conditions: 27 DAA, No. 3.13
Method: (§3) In these tests, various weeds were treated with nicosulfuron alone at a rate equivalent to 35 g per hectare, […] and Compound (A) at rates equivalent to the sum of these. The compositions were formulated as an emulsifyable concentrate (EC).
as §2

[7] = tested on: AMBROSIA TRIFIDA; assay: Compound (A) with nicosulfuron, weed plots; conditions: 28 DAA, No. 3.15
Method: as §3, §2

[8] = tested on: BRACHIARIA PLATYPHYLLA; assay: Compound (A) with nicosulfuron, weed plots
Method: as §3, §2

[9] = tested on: CYPERUS ESCULENTUS; assay: Compound (A) with nicosulfuron, weed plots
Method: as §3, §2

[10] = tested on: C[…].; assay: Compound (A) with nicosulfuron, weed plots; conditions: 5 DAA, No. 3.8
Method: as §3, §2

[11] = tested on: DIGITARIA SANGUINALIS; assay: Compound (A) with nicosulfuron, weed plots
Method: as §3, §2

[12] = tested on: IPOMOEA SP.; assay: Compound (A) with nicosulfuron, weed plots; conditions: 5 DAA, No. 3.10
Method: as §3, §2

[13] = tested on: SESBANIA EXALTATA; assay: Compound (A) with nicosulfuron, weed plots
Method: as §3, §2

[14] = tested on: SETARIA SP.; assay: Compound (A) with nicosulfuron, weed plots; conditions: 21 DAA, No. 3.4
Method: as §3, §2

[15] = tested on: SETARIA VIRIDIS; assay: Compound (A) with nicosulfuron, weed plots; conditions: 4 DAA, No. 3.11
Method: as §3, §2

[16] = tested on: […]; assay: Compound (A) with nicosulfuron, weed plots; conditions: 58 DAA, No. 3.12
Method: as §3, §2

[17] = tested on: Ipomoea; assay: Compound (A) with primisulfuron, weed plots; conditions: 44 DAA, Trial 3.21
Method: In these tests, various weeds were treated with primisulfuron alone at a rate equivalent to 35 g per hectare, […] and Compound (A) at rates equivalent to the sum of these. The compositions were formulated as an emulsifiable concentrate (EC).
(§4) The results in the tables under each application are the percentage of the plants that were killed.

[18] = tested on: Corn; assay: Compound (A) with prosulfuron, weed plots; conditions: 13 DAA, No. 3.26
Description: (§5) In these tests, […] and Compound (A) at rates equivalent to the sum of these. The compositions were formulated as an emulsifiable concentrate (EC).
as §4

[19] = tested on: Galium; assay: Compound (A) with prosulfuron, weed plots; conditions: 13 DAA, No. 3.24
Description: as §5, §4

[20] = tested on: Cyperus; assay: Compound (A) with sulcotrione, weed plots; conditions: 14 DAA, Trial 5.1
Method: In these tests, various weeds were treated with sulcotrione alone at an application rate equivalent to 1420 g per hectare, […] and Compound (A) at rates equivalent to the sum of these. The compositions were formulated as an emulsifyable concentrate (EC).
as §2

Measured: percentage of the plants that were killed

CCOC(=O)COc1ncccc1Oc1cc(-n2c(=O)cc(C(F)(F)F)n(C)c2=O)c(F)cc1Cl [Compound (A)]
85%: [13]; 10 g/ha, 44 DAA, No. 3.3 | [13]; 10 g/ha, 45 DAA, No. 3.2 | [15]; 20 g/ha
50%: [7]; 5 g/ha | [7]; 10 g/ha | [11]; 5 g/ha, 21 DAA, No. 3.5 | [11]; 10 g/ha, 5 DAA, No. 3.14 | [14]; 5 g/ha | [16]; 5 g/ha | [19]; 1.25 g/ha | [19]; 2.5 g/ha | [20]; 1.25 g/ha | [20]; 5 g/ha
80%: [11]; 10 g/ha, 21 DAA, No. 3.5 | [12]; 10 g/ha | [14]; 10 g/ha | [17]; 1.25 g/ha
60%: [5]; 10 g/ha | [7]; 20 g/ha | [9]; 10 g/ha, 7 DAA, No. 3.7 | [9]; 20 g/ha, 7 DAA, No. 3.7
65%: [13]; 5 g/ha, 45 DAA, No. 3.2
30%: [9]; 20 g/ha, 12 DAA, No. 3.9 | [10]; 10 g/ha | [12]; 5 g/ha
97%: [16]; 20 g/ha
100%: [17]; 2.5 g/ha | [17]; 5 g/ha | [19]; 5 g/ha
75%: [2]; 20 g/ha | [13]; 5 g/ha, 44 DAA, No. 3.3
25%: [11]; 5 g/ha, 5 DAA, No. 3.14
0%: [1]; 10 g/ha | [1]; 20 g/ha | [3]; 10 g/ha, 1 DAA, No. 2.3 | [3]; 10 g/ha, 52 DAA, No. 2.4 | [3]; 20 g/ha, 1 DAA, No. 2.3 | [3]; 20 g/ha, 52 DAA, No. 2.4 | [4]; 10 g/ha | [4]; 20 g/ha | [6]; 5 g/ha | [8]; 5 g/ha, 24 DAA, No. 3.16 | [8]; 5 g/ha, 30 DAA, No. 3.17 | [8]; 10 g/ha, 24 DAA, No. 3.16 | [8]; 10 g/ha, 30 DAA, No. 3.17 | [8]; 20 g/ha, 24 DAA, No. 3.16 | [8]; 20 g/ha, 30 DAA, No. 3.17 | [9]; 5 g/ha, 12 DAA, No. 3.9 | [9]; 10 g/ha, 12 DAA, No. 3.9
70%: [5]; 20 g/ha | [15]; 10 g/ha | [16]; 10 g/ha | [18]; 1.25 g/ha
99%: [6]; 20 g/ha | [11]; 20 g/ha, 5 DAA, No. 3.14
98%: [6]; 10 g/ha | [11]; 20 g/ha, 4 DAA, No. 3.6 | [18]; 5 g/ha
20%: [10]; 5 g/ha | [11]; 5 g/ha, 4 DAA, No. 3.6
90%: [11]; 10 g/ha, 4 DAA, No. 3.6 | [13]; 20 g/ha, 44 DAA, No. 3.3 | [13]; 20 g/ha, 45 DAA, No. 3.2 | [18]; 2.5 g/ha
95%: [10]; 20 g/ha | [12]; 20 g/ha
40%: [2]; 10 g/ha | [9]; 5 g/ha, 7 DAA, No. 3.7 | [15]; 5 g/ha
93%: [11]; 20 g/ha, 21 DAA, No. 3.5 | [14]; 20 g/ha
